In ChEMBL document CHEMBL1201862, “PubChem BioAssay data set” (2004):
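Cultured in 96-well plates, cells were exposed to test compound for 48 hours across five concentrations. The concentration for 50% growth inhibition is given as GI50.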 Calls of active or inactive are those of the source. Cut-off read from the data, not from the text of the source: active = GI50 up to about 1.1 µM and inactive = higher.

Tests used:
Experiment in all cases: DTP human tumour cell line panel, 48 h
[1] = system: HT-29
[2] = system: 786-0
[3] = system: MOLT-4
[4] = system: A498
[5] = system: K562
[6] = system: UO-31
[7] = system: TK-10
[8] = system: ACHN
[9] = system: NCI-H460
[10] = system: OVCAR-8
[11] = system: SW-620
[12] = system: HOP-92
[13] = system: SK-MEL-2
[14] = system: SR
[15] = system: RPMI-8226
[16] = system: SK-OV-3
[17] = system: LOX IMVI
[18] = system: MDA-N
[19] = system: PC-3

Measured: GI50

Cc1ccc(NC(=O)C2C(=O)C(=O)N(c3ccc(C)cc3)C2=O)cc1 (stereo unspecified)
inactive: [1] > 100 µM | [2] > 100 µM | [3] > 100 µM | [4] > 100 µM | [5] > 100 µM | [6] > 100 µM | [7] > 100 µM | [8] > 100 µM | [9] > 100 µM | [10] > 100 µM | [11] > 100 µM | [12] > 100 µM | [13] > 100 µM | [14] > 100 µM

CCOP(=O)(OCC)OC1C=CC2CCC1C2 (stereo unspecified)
inactive: [1] > 100 µM | [2] 86.3 µM | [3] > 100 µM | [4] > 100 µM | [5] > 100 µM | [6] > 100 µM | [7] > 100 µM | [8] > 100 µM | [9] > 100 µM | [10] > 100 µM | [15] 28.1 µM | [16] > 100 µM | [13] > 100 µM | [17] > 100 µM | [14] 26.6 µM

Nc1nc(Cl)cc(NCCCCCCNc2cc(Cl)nc(N)n2)n1
inactive: [1] > 100 µM | [2] > 100 µM | [3] 48.2 µM | [5] 28.6 µM | [6] > 100 µM | [7] > 100 µM | [8] 2.88 µM | [9] > 100 µM | [10] > 100 µM | [11] > 100 µM | [12] 25.4 µM | [15] 45.3 µM | [16] > 100 µM | [13] 87.9 µM | [17] 20.8 µM | [14] 42 µM

C/C=C/C1(C)/C(=N\O)C(C)(CCC)C(=O)N1O (stereo unspecified)
inactive: [1] > 100 µM | [2] > 100 µM | [3] > 100 µM | [4] > 100 µM | [5] > 100 µM | [6] > 100 µM | [7] > 100 µM | [8] > 100 µM | [9] > 100 µM | [10] > 100 µM | [11] > 100 µM | [12] > 100 µM | [15] > 100 µM | [16] > 100 µM | [13] > 100 µM | [17] > 100 µM | [14] > 100 µM

O=C1C=CC(=CC=C2C=CN(CCCCCCCCCCC(=O)NCCCCCCCCCCCC(=O)O)C=C2)C=C1
inactive: [1] > 100 µM | [2] > 100 µM | [3] > 100 µM | [4] > 100 µM | [5] > 100 µM | [6] > 100 µM | [7] > 100 µM | [8] > 100 µM | [9] > 100 µM | [10] > 100 µM | [11] > 100 µM | [12] > 100 µM | [15] > 100 µM | [16] > 100 µM | [17] > 100 µM | [14] > 100 µM

CCCCOC(=O)CNC(=O)OCCCCC#CC#CCCCCOC(=O)NCC(=O)OCCCC
inactive: [1] > 100 µM | [2] > 100 µM | [3] > 100 µM | [4] > 100 µM | [5] > 100 µM | [6] > 100 µM | [7] > 100 µM | [8] > 100 µM | [9] > 100 µM | [10] > 100 µM | [11] > 100 µM | [15] > 100 µM | [16] > 100 µM | [17] > 100 µM | [14] > 100 µM

CCOc1ccccc1NC(=O)CCC(=O)OC
inactive: [1] > 100 µM | [2] > 100 µM | [3] > 100 µM | [4] > 100 µM | [5] > 56.2 µM | [6] > 100 µM | [7] > 100 µM | [8] > 100 µM | [9] > 100 µM | [10] > 100 µM | [11] > 42.1 µM | [12] > 100 µM | [15] > 48.3 µM | [16] > 100 µM | [13] > 100 µM | [17] > 31.6 µM | [14] > 47 µM

NC(=O)N/N=C1/CCCC/C1=C\c1ccccc1
inactive: [1] > 100 µM | [2] > 100 µM | [3] 36.6 µM | [4] > 100 µM | [5] > 100 µM | [6] 80.9 µM | [7] > 100 µM | [8] > 100 µM | [9] > 100 µM | [10] > 100 µM | [11] > 100 µM | [12] > 100 µM | [15] > 100 µM | [16] > 100 µM | [13] > 100 µM | [17] > 100 µM | [14] > 100 µM

O=c1nc2n(cc1/C=C\Br)C1CC(O)C(CO2)O1 (stereo unspecified)
inactive: [1] > 100 µM | [2] > 100 µM | [3] > 100 µM | [4] 49.9 µM | [5] 5.16 µM | [6] > 100 µM | [7] > 100 µM | [8] > 100 µM | [9] > 100 µM | [10] > 100 µM | [18] > 100 µM | [11] > 100 µM | [15] > 100 µM | [16] > 100 µM | [17] > 100 µM

COc1ccccc1/C=C1\CCC(CCN2CCOCC2)C1=O (stereo unspecified)
inactive: [1] 50.1 µM | [2] > 100 µM | [3] 48.1 µM | [4] > 100 µM | [5] 41.1 µM | [6] 90.4 µM | [7] 93.1 µM | [8] 75.2 µM | [9] 90.8 µM | [10] > 100 µM | [11] > 100 µM | [12] > 100 µM | [15] 34 µM | [13] > 100 µM | [17] 63.2 µM | [14] > 100 µM

N#C/C(=C\c1ccccc1)C(NO)Nc1ccccc1 (stereo unspecified)
inactive: [1] 72.9 µM | [2] > 100 µM | [3] 31.9 µM | [4] 80.2 µM | [5] 44.7 µM | [6] 68.7 µM | [7] > 100 µM | [8] 72.9 µM | [9] > 100 µM | [10] 66.1 µM | [11] 74.8 µM | [12] 57.3 µM | [15] 58.1 µM | [16] > 100 µM | [13] > 100 µM | [14] 20.1 µM

N#CI1OC(=O)c2ccccc21
inactive: [1] > 100 µM | [2] > 100 µM | [3] 92.9 µM | [19] > 100 µM | [4] > 100 µM | [5] 39.8 µM | [6] > 100 µM | [7] > 100 µM | [8] > 100 µM | [9] > 100 µM | [10] > 100 µM | [11] > 100 µM | [15] 38.5 µM | [16] > 100 µM | [13] > 100 µM | [17] > 100 µM | [14] 23.6 µM
